# Laboratory results as given in the supplement of paper PMC11451515.
# Test system: NOMO1
# Experiment: cell viability relative to DMSO control; higher = less cytotoxic
# Conditions: 48 h
# In short: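 Viability is a per-plate percentage relative to DMSO wells, with cell-free wells as background. CellTiter-Glo One luminescence was read after 48 h at 37°C on 1536-well plates (5 μl) of NOMO1 or SEM (500 cells/well) or P12-Ichikawa (1000 cells/well) leukemia cells. The cells had been adapted for at least four passages in each medium and pin-dosed with library compounds in DMSO from 47 μM to 0.79 nM in 11 threefold steps.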
# [1] = HPLM + 10% dialyzed FBS, 0.000781 µM
# [2] = HPLM + 10% dialyzed FBS, 0.00234 µM
# [3] = HPLM + 10% dialyzed FBS, 0.00702 µM
# [4] = HPLM + 10% dialyzed FBS, 0.0211 µM
# [5] = HPLM + 10% dialyzed FBS, 0.0632 µM
# [6] = HPLM + 10% dialyzed FBS, 0.19 µM
# [7] = HPLM + 10% dialyzed FBS, 0.569 µM
# [8] = HPLM + 10% dialyzed FBS, 1.71 µM
# [9] = HPLM + 10% dialyzed FBS, 5.12 µM
# [10] = HPLM + 10% dialyzed FBS, 15.4 µM
# [11] = HPLM + 10% dialyzed FBS, 46.1 µM
# [12] = RPMI 5 mM glucose + 10% FBS, 0.000781 µM
# [13] = RPMI 5 mM glucose + 10% FBS, 0.00234 µM
# [14] = RPMI 5 mM glucose + 10% FBS, 0.00702 µM
# [15] = RPMI 5 mM glucose + 10% FBS, 0.0211 µM
# [16] = RPMI 5 mM glucose + 10% FBS, 0.0632 µM
# [17] = RPMI 5 mM glucose + 10% FBS, 0.19 µM
# [18] = RPMI 5 mM glucose + 10% FBS, 0.569 µM
# [19] = RPMI 5 mM glucose + 10% FBS, 1.71 µM
# [20] = RPMI 5 mM glucose + 10% FBS, 5.12 µM
# [21] = RPMI 5 mM glucose + 10% FBS, 15.4 µM
# [22] = RPMI 5 mM glucose + 10% FBS, 46.1 µM
# [23] = RPMI 5 mM glucose + 10% dialyzed FBS, 0.000781 µM
# [24] = RPMI 5 mM glucose + 10% dialyzed FBS, 0.00234 µM
# [25] = RPMI 5 mM glucose + 10% dialyzed FBS, 0.00702 µM
# [26] = RPMI 5 mM glucose + 10% dialyzed FBS, 0.0211 µM
# [27] = RPMI 5 mM glucose + 10% dialyzed FBS, 0.0632 µM
# [28] = RPMI 5 mM glucose + 10% dialyzed FBS, 0.19 µM
# [29] = RPMI 5 mM glucose + 10% dialyzed FBS, 0.569 µM
# [30] = RPMI 5 mM glucose + 10% dialyzed FBS, 1.71 µM
# [31] = RPMI 5 mM glucose + 10% dialyzed FBS, 5.12 µM
# [32] = RPMI 5 mM glucose + 10% dialyzed FBS, 15.4 µM
# [33] = RPMI 5 mM glucose + 10% dialyzed FBS, 46.1 µM
Structure (SMILES),cell viability [1] [%],cell viability [2] [%],cell viability [3] [%],cell viability [4] [%],cell viability [5] [%],cell viability [6] [%],cell viability [7] [%],cell viability [8] [%],cell viability [9] [%],cell viability [10] [%],cell viability [11] [%],cell viability [12] [%],cell viability [13] [%],cell viability [14] [%],cell viability [15] [%],cell viability [16] [%],cell viability [17] [%],cell viability [18] [%],cell viability [19] [%],cell viability [20] [%],cell viability [21] [%],cell viability [22] [%],cell viability [23] [%],cell viability [24] [%],cell viability [25] [%],cell viability [26] [%],cell viability [27] [%],cell viability [28] [%],cell viability [29] [%],cell viability [30] [%],cell viability [31] [%],cell viability [32] [%],cell viability [33] [%]
Clc1ccc(C(c2ccc(Cl)cc2)[n+]2ccn(CC(OCc3ccc(Cl)cc3Cl)c3ccc(Cl)cc3Cl)c2)cc1 (configuration not stated),108,99,113,110,107,107,115,102,101,81.2,3.86,94.6,100,105,94.7,119,113,91,103,102,74.3,3.56,105,105,118,114,112,107,98.5,91.3,90.4,83,2.5
OC1=C(Cl)C=C(N\C2=C(\C(=O)NC2=O)C3=C(C=CC=C3)[N+]([O-])=O)C=C1,100,98.3,103,106,120,106,83.8,70,68.9,56.8,60.7,94.3,106,116,102,99.5,95.9,94.5,95.4,86.5,69.6,10.1,90.2,98.7,102,112,119,116,96.4,94.2,78.6,73.9,12.1
COc1cc(C[C@@H](CO)[C@H](CO)Cc2ccc(O)c(OC)c2)ccc1O,97.7,99.3,97.2,123,112,122,126,108,107,101,104,107,118,101,111,103,108,106,97.2,104,94.4,102,95.8,111,113,107,118,110,107,107,104,103,112
CCOc1cc(C(=O)Nc2ccc(Cl)c(-c3nc4ccccc4[nH]3)c2)cc(OCC)c1OCC,79.3,104,101,102,104,108,105,115,107,116,63.3,72.8,90.6,81.9,92.8,93,90.3,83.5,83.2,88.2,98.1,59.1,83.8,84.3,104,84.6,84.6,90.3,87.3,95,109,101,50.1
NC(=O)c1nnn(Cc2cc(Cl)c(C(=O)c3ccc(Cl)cc3)c(Cl)c2)c1N,111,134,124,127,120,137,124,135,111,120,78.7,121,123,129,124,122,123,123,105,110,114,103,–,–,–,–,–,–,–,–,–,–,–
Nc1nccc(-c2ccc3noc(-c4ccc(Cl)cc4)c3c2)n1,–,–,–,–,–,–,–,–,–,–,–,101,117,103,127,102,111,115,107,108,101,104,121,115,115,120,122,110,127,106,118,116,113
CN(C)C(=O)[C@H](O)[C@H](Cc1ccccc1)NC(=O)c1cc2cc(Cl)ccc2[nH]1,107,107,115,122,122,132,144,145,171,145,138,111,105,103,103,124,126,127,109,123,121,112,83.9,109,109,109,113,115,132,133,118,136,126
CN1CCC(CNc2ccc3ncc(-c4cccc(OC(F)(F)F)c4)n3n2)CC1,101,106,112,113,97.8,125,114,104,91,70.7,5.88,87.2,83.3,85.2,99.5,89.4,91.4,97.9,85.8,85.6,73.5,5.17,116,93.1,97.1,88.2,99.4,97.5,104,94.9,79.3,68.5,4.98
